{
  "source": "patent US12291519B2",
  "about": "“2-hydroxycycloalkane-1-carbamoyl” (Idorsia Pharmaceuticals Ltd, priority 2019, dated 2025)",
  "key": {"[1]": {"biological_target": "human Gal-3 (hGal-3) (Homo sapiens (Human), UniProt P17931)", "sequence (P17931 whole entry)": "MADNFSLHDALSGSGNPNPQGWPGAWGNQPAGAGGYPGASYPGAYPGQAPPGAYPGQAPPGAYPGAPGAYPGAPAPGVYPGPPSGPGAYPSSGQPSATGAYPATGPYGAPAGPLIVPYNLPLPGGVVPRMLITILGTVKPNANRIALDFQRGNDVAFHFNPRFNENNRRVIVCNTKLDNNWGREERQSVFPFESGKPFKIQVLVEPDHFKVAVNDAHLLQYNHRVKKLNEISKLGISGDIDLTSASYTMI", "assay": "Competitive binding assay: biotinylated hGal-3 binding to microplate-adsorbed asialofetuin (ASF)", "details": "Activity on hGal-3; binding of biotinylated hGal-3 to ASF-coated plates; mean values", "protocol": "(§1) Evaluation of Compound Inhibitory Activity (IC50)\nThe inhibitory activity of compounds is determined in competitive binding assays. […] Alternatively, and preferably, a human Gal-1 version in which all six cysteines are substituted by serines may be used.\nBriefly, compounds are serially diluted in DMSO (working dilutions).\n(§2) Plates are incubated for 3 hours at 4° C. then washed with cold assay buffer (3×50 uL), incubated for 1 hour with 25 μL/well of a streptavidin-peroxidases solution (diluted in assay buffer to 80 ng/mL) at 4° C., followed by further washing steps with assay buffer (3×50 uL). Finally, 25 μL/well of ABTS substrate is added.\n(§3) The calculated IC50 values may fluctuate depending on the daily assay performance. Fluctuations of this kind are known to those skilled in the art. IC50 values from several measurements are given as mean values."}, "[2]": {"biological_target": "human Gal-1 (hGal-1)", "sequence (P09382 2-135 limits assumed)": "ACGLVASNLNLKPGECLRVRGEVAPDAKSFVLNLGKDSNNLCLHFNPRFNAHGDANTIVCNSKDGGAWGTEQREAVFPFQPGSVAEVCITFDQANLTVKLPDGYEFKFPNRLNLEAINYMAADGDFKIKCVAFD", "assay": "Competitive binding assay: biotinylated hGal-1 binding to microplate-adsorbed asialofetuin (ASF)", "details": "Activity on hGal-1; binding of biotinylated hGal-1 to ASF-coated plates; mean values", "protocol": "as §1\nThe inhibitory activity of compounds is determined in competitive binding assays. This spectrophotometric assay measures the binding of biotinylated human Gal-3 (hGal-3) or human Gal-1 (hGAl-1), respectively, to a microplate-adsorbed glycoprotein, asialofetuin (ASF) (Proc Natl Acad Sci USA. 2013 Mar. 26; 110(13):5052-7.). Alternatively, and preferably, a human Gal-1 version in which all six cysteines are substituted by serines may be used.\nBriefly, compounds are serially diluted in DMSO (working dilutions). ASF-coated 384 well pates are supplemented with 22.8 μL/well of biotinylated hGal-3 or hGal-1 in assay buffer (i.e. 300-1000 ng/mL biotinylated hGal-3 or hGal-1) to which 1.2 μL of compound working dilutions are added and mixed.\nas §2, with “added. OD (410 nm) is recorded after 30 to 45 min and IC50 values are calculated.” for “added.”\nas §3"}},
  "data": [
    {"compound": "CO[C@@H]1[C@@H](n2cc(-c3cc(F)c(F)c(F)c3)nn2)[C@@H](O)[C@@H](CO)O[C@H]1C(=O)N(Cc1nc[nH]c1C)[C@H]1CCCC[C@@H]1O", "note": "[Example 30, (2R,3R,4S,5R,6R)-5-hydroxy-N-((1S,2S)-2-hydroxycyclohexyl)-6-(hydroxymethyl)-3-methoxy-N-((5-methyl-1H-imidazol-4-yl)methyl)-4-(4-(3,4,5-trifluorophenyl)-1H-1,2,3-triazol-1-yl)tetrahydro-2H-pyran-2-carboxamide]", "values": [
      {"measurement": "IC50", "setting": "[1]", "value": 575, "unit": "nM"},
      {"measurement": "IC50", "setting": "[2]", "value": 10400, "unit": "nM"}
    ]},
    {"compound": "CO[C@@H]1[C@@H](n2cc(-c3cc(F)c(F)c(F)c3)nn2)[C@@H](O)[C@@H](CO)O[C@H]1C(=O)N(Cc1cccc(Cl)c1)[C@H]1CCCC[C@@H]1O", "note": "[Example 53, (2R,3R,4S,5R,6R)-N-(3-chlorobenzyl)-5-hydroxy-N-((1S,2S)-2-hydroxycyclohexyl)-6-(hydroxymethyl)-3-methoxy-4-(4-(3,4,5-trifluorophenyl)-1H-1,2,3-triazol-1-yl)tetrahydro-2H-pyran-2-carboxamide]", "values": [
      {"measurement": "IC50", "setting": "[1]", "value": 868, "unit": "nM"},
      {"measurement": "IC50", "setting": "[2]", "value": 10800, "unit": "nM"}
    ]},
    {"compound": "CO[C@@H]1[C@@H](n2cc(-c3cc(F)cc(Cl)c3)nn2)[C@@H](O)[C@@H](CO)O[C@H]1C(=O)N(c1cc(F)cc(C#N)c1)[C@H]1CCCC[C@@H]1O", "note": "[Example 135, (2R,3R,4S,5R,6R)-4-(4-(3-chloro-5-fluorophenyl)-1H-1,2,3-triazol-1-yl)-N-(3-cyano-5-fluorophenyl)-5-hydroxy-N-((1S,2S)-2-hydroxycyclohexyl)-6-(hydroxymethyl)-3-methoxytetrahydro-2H-pyran-2-carboxamide]", "values": [
      {"measurement": "IC50", "setting": "[1]", "value": 52, "unit": "nM"},
      {"measurement": "IC50", "setting": "[2]", "value": 270, "unit": "nM"}
    ]},
    {"compound": "CO[C@@H]1[C@@H](n2cc(-c3cc(F)c(F)c(Cl)c3)nn2)[C@@H](O)[C@@H](CO)O[C@H]1C(=O)N(c1ccc2ncsc2c1)[C@H]1CCCC[C@@H]1O", "note": "[Example 131, (2R,3R,4S,5R,6R)-N-(benzo[d]thiazol-6-yl)-4-(4-(3-chloro-4,5-difluorophenyl)-1H-1,2,3-triazol-1-yl)-5-hydroxy-N-((1S,2S)-2-hydroxycyclohexyl)-6-(hydroxymethyl)-3-methoxytetrahydro-2H-pyran-2-carboxamide]", "values": [
      {"measurement": "IC50", "setting": "[1]", "value": 34, "unit": "nM"},
      {"measurement": "IC50", "setting": "[2]", "value": 224, "unit": "nM"}
    ]},
    {"compound": "CO[C@@H]1[C@@H](n2cc(-c3ccc4nc(C)sc4c3)nn2)[C@@H](O)[C@@H](CO)O[C@H]1C(=O)N(c1cc(Cl)cc(Cl)c1)[C@H]1CCCC[C@@H]1O", "note": "[Example 191, (2R,3R,4S,5R,6R)-N-(3,5-dichlorophenyl)-5-hydroxy-N-((1S,2S)-2-hydroxycyclohexyl)-6-(hydroxymethyl)-3-methoxy-4-(4-(2-methylbenzo[d]thiazol-6-yl)-1H-1,2,3-triazol-1-yl)tetrahydro-2H-pyran-2-carboxamide]", "values": [
      {"measurement": "IC50", "setting": "[1]", "value": 41, "unit": "nM"},
      {"measurement": "IC50", "setting": "[2]", "value": 1140, "unit": "nM"}
    ]},
    {"compound": "CO[C@@H]1[C@@H](n2cc(-c3cc(F)c(F)c(Cl)c3)nn2)[C@@H](O)[C@@H](CO)O[C@H]1C(=O)N(c1ccc(F)c(F)c1)[C@H]1CCCC[C@@H]1O", "note": "[Example 130, (2R,3R,4S,5R,6R)-4-(4-(3-chloro-4,5-difluorophenyl)-1H-1,2,3-triazol-1-yl)-N-(3,4-difluorophenyl)-5-hydroxy-N-((1S,2S)-2-hydroxycyclohexyl)-6-(hydroxymethyl)-3-methoxytetrahydro-2H-pyran-2-carboxamide]", "values": [
      {"measurement": "IC50", "setting": "[1]", "value": 53, "unit": "nM"},
      {"measurement": "IC50", "setting": "[2]", "value": 924, "unit": "nM"}
    ]},
    {"compound": "O=C([C@@H]1O[C@H](CO)[C@H](O)[C@H](n2cc(-c3cc(F)c(F)c(F)c3)nn2)[C@H]1O)N(Cc1cncnc1C(F)(F)F)[C@H]1CCCC[C@@H]1O", "note": "[Example 27, (2R,3R,4S,5R,6R)-3,5-dihydroxy-N-((1S,2S)-2-hydroxycyclohexyl)-6-(hydroxymethyl)-N-((4-(trifluoromethyl)pyrimidin-5-yl)methyl)-4-(4-(3,4,5-trifluorophenyl)-1H-1,2,3-triazol-1-yl)tetrahydro-2H-pyran-2-carboxamide]", "values": [
      {"measurement": "IC50", "setting": "[1]", "value": 264, "unit": "nM"},
      {"measurement": "IC50", "setting": "[2]", "value": 3200, "unit": "nM"}
    ]},
    {"compound": "COc1cnc2ccc(F)c(CN(C(=O)[C@@H]3O[C@H](CO)[C@H](O)[C@H](n4cc(-c5cc(F)c(F)c(F)c5)nn4)[C@H]3OC)[C@H]3CCCC[C@@H]3O)c2n1", "note": "[Example 64, (2R,3R,4S,5R,6R)-N-((6-fluoro-3-methoxyquinoxalin-5-yl)methyl)-5-hydroxy-N-((1S,2S)-2-hydroxycyclohexyl)-6-(hydroxymethyl)-3-methoxy-4-(4-(3,4,5-trifluorophenyl)-1H-1,2,3-triazol-1-yl)tetrahydro-2H-pyran-2-carboxamide]", "values": [
      {"measurement": "IC50", "setting": "[1]", "value": 123, "unit": "nM"},
      {"measurement": "IC50", "setting": "[2]", "value": 980, "unit": "nM"}
    ]},
    {"compound": "O=C(CO[C@@H]1[C@@H](n2cc(-c3cc(F)c(F)c(F)c3)nn2)[C@@H](O)[C@@H](CO)O[C@H]1C(=O)N(c1cc(Cl)cc(Cl)c1)[C@H]1CCCC[C@@H]1O)N1CC[C@H](O)C1", "note": "[Example 125, (2R,3R,4S,5R,6R)—N-(3,5-dichlorophenyl)-5-hydroxy-N-((1S,2S)-2-hydroxycyclohexyl)-6-(hydroxymethyl)-3-(2-((S)-3-hydroxypyrrolidin-1-yl)-2-oxoethoxy)-4-(4-(3,4,5-trifluorophenyl)-1H-1,2,3-triazol-1-yl)tetrahydro-2H-pyran-2-carboxamide]", "values": [
      {"measurement": "IC50", "setting": "[1]", "value": 9, "unit": "nM"},
      {"measurement": "IC50", "setting": "[2]", "value": 134, "unit": "nM"}
    ]},
    {"compound": "CO[C@@H]1[C@@H](n2cc(-c3ccc(Cl)c(Cl)c3)nn2)[C@@H](O)[C@@H](CO)O[C@H]1C(=O)N(c1cc(Cl)cc(C#N)c1)[C@H]1CCCC[C@@H]1O", "note": "[Example 186, (2R,3R,4S,5R,6R)-N-(3-chloro-5-cyanophenyl)-4-(4-(3,4-dichlorophenyl)-1H-1,2,3-triazol-1-yl)-5-hydroxy-N-((1S,2S)-2-hydroxycyclohexyl)-6-(hydroxymethyl)-3-methoxytetrahydro-2H-pyran-2-carboxamide]", "values": [
      {"measurement": "IC50", "setting": "[1]", "value": 17, "unit": "nM"},
      {"measurement": "IC50", "setting": "[2]", "value": 210, "unit": "nM"}
    ]},
    {"compound": "CO[C@@H]1[C@@H](n2cc(-c3cc(F)c(F)c(F)c3)nn2)[C@@H](O)[C@@H](CO)O[C@H]1C(=O)N(c1cccc2ccccc12)[C@H]1CCCC[C@@H]1O", "note": "[Example 198, (2R,3R,4S,5R,6R)-5-hydroxy-N-((1S,2S)-2-hydroxycyclohexyl)-6-(hydroxymethyl)-3-methoxy-N-(naphthalen-1-yl)-4-(4-(3,4,5-trifluorophenyl)-1H-1,2,3-triazol-1-yl)tetrahydro-2H-pyran-2-carboxamide]", "values": [
      {"measurement": "IC50", "setting": "[1]", "value": 117, "unit": "nM"},
      {"measurement": "IC50", "setting": "[2]", "value": "> 100000", "unit": "nM"}
    ]},
    {"compound": "CC(=O)O[C@@H]1[C@@H](n2cc(-c3cc(F)c(F)c(F)c3)nn2)[C@@H](O)[C@@H](CO)O[C@H]1C(=O)N(Cc1nccn1C)[C@H]1CCCC[C@@H]1O", "note": "[Example 42]", "values": [
      {"measurement": "IC50", "setting": "[1]", "value": 212, "unit": "nM"},
      {"measurement": "IC50", "setting": "[2]", "value": 34500, "unit": "nM"}
    ]},
    {"compound": "CO[C@@H]1[C@@H](n2cc(-c3ccc(C)c(F)c3)nn2)[C@@H](O)[C@@H](CO)O[C@H]1C(=O)N(c1cc(Cl)cc(C#N)c1)[C@H]1CCCC[C@@H]1O", "note": "[Example 170, (2R,3R,4S,5R,6R)-N-(3-chloro-5-cyanophenyl)-4-(4-(3-fluoro-4-methylphenyl)-1H-1,2,3-triazol-1-yl)-5-hydroxy-N-((1S,2S)-2-hydroxycyclohexyl)-6-(hydroxymethyl)-3-methoxytetrahydro-2H-pyran-2-carboxamide]", "values": [
      {"measurement": "IC50", "setting": "[1]", "value": 18, "unit": "nM"},
      {"measurement": "IC50", "setting": "[2]", "value": 569, "unit": "nM"}
    ]},
    {"compound": "O=C([C@@H]1O[C@H](CO)[C@H](O)[C@H](n2cc(-c3cc(F)c(F)c(F)c3)nn2)[C@H]1O)N(Cc1ccc(Cl)o1)[C@H]1CCCC[C@@H]1O", "note": "[Example 17, (2R,3R,4S,5R,6R)-N-((5-chlorofuran-2-yl)methyl)-3,5-dihydroxy-N-((1S,2S)-2-hydroxycyclohexyl)-6-(hydroxymethyl)-4-(4-(3,4,5-trifluorophenyl)-1H-1,2,3-triazol-1-yl)tetrahydro-2H-pyran-2-carboxamide]", "values": [
      {"measurement": "IC50", "setting": "[1]", "value": 281, "unit": "nM"},
      {"measurement": "IC50", "setting": "[2]", "value": 23100, "unit": "nM"}
    ]},
    {"compound": "COc1cc(Cl)cc(N(C(=O)[C@@H]2O[C@H](CO)[C@H](O)[C@H](n3cc(-c4cc(F)c(F)c(F)c4)nn3)[C@H]2OC)[C@H]2CCCC[C@@H]2O)c1", "note": "[Example 104, (2R,3R,4S,5R,6R)-N-(3-chloro-5-methoxyphenyl)-5-hydroxy-N-((1S,2S)-2-hydroxycyclohexyl)-6-(hydroxymethyl)-3-methoxy-4-(4-(3,4,5-trifluorophenyl)-1H-1,2,3-triazol-1-yl)tetrahydro-2H-pyran-2-carboxamide]", "values": [
      {"measurement": "IC50", "setting": "[1]", "value": 19, "unit": "nM"},
      {"measurement": "IC50", "setting": "[2]", "value": 1190, "unit": "nM"}
    ]},
    {"compound": "CO[C@@H]1[C@@H](n2cc(-c3cc(F)c(F)c(F)c3)nn2)[C@@H](O)[C@@H](CO)O[C@H]1C(=O)N(Cc1scnc1C)[C@H]1CCCC[C@@H]1O", "note": "[Example 36, (2R,3R,4S,5R,6R)-5-hydroxy-N-((1S,2S)-2-hydroxycyclohexyl)-6-(hydroxymethyl)-3-methoxy-N-((4-methylthiazol-5-yl)methyl)-4-(4-(3,4,5-trifluorophenyl)-1H-1,2,3-triazol-1-yl)tetrahydro-2H-pyran-2-carboxamide]", "values": [
      {"measurement": "IC50", "setting": "[1]", "value": 231, "unit": "nM"},
      {"measurement": "IC50", "setting": "[2]", "value": 1030, "unit": "nM"}
    ]}
  ]
}
